Experimental data taken from publication PMC5770468, “Cardiac glycoside/aglycones inhibit HIV-1 gene expression by a mechanism requiring MEK1/2-ERK1/2 signaling” (Scientific Reports, 2018).

Legend:
[1] = system: HIV-infected PBMCs; assay: Ex vivo therapeutic index (CC50/IC50) in HIV-infected PBMCs; format: cell-based, human; details: CC50/IC50, day 14, HIV-infected PBMCs
From the text: Without median toxic dose (TD50) and half-maximal effective concentration (EC50) data available to calculate TIs (in vivo) from HIV patients treated with CSs, we determined the following TIs for each cell type treated with a CS (summarized in Supplementary Table S1): in vitro TIs from HeLa rtTA-HIV-ΔMls cells using CC20/IC50 (instead of CC50/IC50), in vitro TIs from 24ST1NLESG cells using CC50/IC50, and ex vivo TIs from HIV-infected PBMCs using CC50/IC50 (at day 14 of culture approximated from available cell viability trends for CC50s of Supplementary Fig. S13 and inferred near maximal IC50s).
Supplementary Figure S13. Estimation of the approximate ex vivo therapeutic indices of several
CSs. Ex vivo TIs were calculated from CC50/IC50 from day 14 of culture of HIV-infected patient PBMCs treated with CSs. CC50s were estimated/extrapolated from data points by their trends (dashed arrows) from XTT assays of cell viability (gray circles) and their inferred near maximal IC50s estimated from results on HIV-1 p24CA (Gag) production (black circles) from Figures 2f-h and some data points published on digoxin [Wong et al. (2013). PLoS Pathog 9(3):e1003241]. […]

[2] = system: HIV-1 Gag expression; assay: HIV-1 Gag-GFP expression in HeLa rtTA-HIV(Gag-GFP) cells; format: cell-based; details: 220 nM
Protocol: Figure 7 Activation of the MEK1/2-ERK1/2 signaling pathway suppresses HIV-1 gene expression. HeLa rtTA-HIV(Gag-GFP) cells were pre-treated overnight (~15 h) with/without an inhibitor of MEK1/2 (12 μM U0126, MEKi, white), p38α/β/β2 (15 μM SB203580, p38i, light gray), JNK1/2/3 (1.25 μM SP600125, JNKi, hatched), or NCX (5 μM KB-R7943, NCXi, gray) and treated with a MEK1/2-ERK1/2 activator, anisomycin, to isolate the pathway signal as described (and run in parallel for verification of inhibitor activity) in Figures 6 and 5d–f. Cells were monitored for HIV-1 gene expression by detecting Gag-GFP fluorescence in cell lysates (35 μg) resolved on reducing SDS-PAGE, levels of ERK activation by immunoblotting of phospho- and total-ERK from cell lysates, and extent of viral RNA expression by qRT-PCR of mRNAs extracted. […] RNAs were quantified by qRT-PCR as described in Figures 4a,b. […]
Using the same methods and conditions described for HeLa rtTA-HIV-ΔMls cells, HeLa rtTA-HIV(Gag-GFP) cells were seeded in 48-/12-well plates and pretreated with/without pathway inhibitor prior to treatment with drug/compounds and Dox. […] HIV-1 gene expression was determined by detecting Gag-GFP fluorescence in cells by plate scans using a Typhoon Imager 9400 (Amersham Biosciences) or Typhoon FLA 9400 (GE) on ImageQuant, cell lysates by SDS-PAGE captured on ChemiDoc MP, or cell lysates by p24^CA ELISA. […]

Row | SMILES | better approximate ex vivo TI than FDA-approved counterparts [1] [fold] | HIV-1 Gag expression [2]
1 | C[C@]12CC[C@H](O)C[C@H]1CC[C@@H]1[C@@H]2CC[C@]2(C)[C@@H](C3=CC(=O)OC3)CC[C@]12O [Digitoxigenin] | ≥ 1.5 | 
2 | COc1ccc(C[C@H]2NC[C@H](O)[C@H]2OC(C)=O)cc1 [anisomycin, Anisomycin] |  | inhibited
